Biological target: Xanthine oxidase (from bovine milk, Sigma) (Bos taurus (Bovine), UniProt P80457)
Assay: Xanthine oxidase inhibitory activity
Assay type: biochemical
Conditions: absorbance at 290 nm
Procedure: (1) Preparation of Test Compounds
Test compounds were dissolved in DMSO (Wako) at 40 mM concentration and then diluted to intended concentrations with phosphate-buffered saline (PBS).
(2) Method for Measurement
Xanthine oxidase (from bovine milk, Sigma) was prepared with phosphate-buffered saline (PBS) at 0.02 units/mL, and then the solution was added to 96 well plates at 50 μL/well. In addition, test compounds diluted with PBS were added at 50 μL/well. Xanthine (Wako) at 200 μM prepared with PBS was added at 100 μL/well, and the reaction was conducted for 10 minutes at room temperature. Absorbance at 290 nm was measured using a microplate reader SpectraMax Plus 384 (Molecular device). The absorbance under a condition without xanthine is 0%, and control without test compounds is 100%. Fifty % inhibitory concentration of a test compound (IC50) was calculated (Tables 91 to 92). Ex. No in the table indicates Example number.

[1] = 0.02 units/mL, xanthine 200 μM, 10 minutes at room temperature

Xanthine oxidase (from bovine milk, Sigma), sequence (P80457 whole entry): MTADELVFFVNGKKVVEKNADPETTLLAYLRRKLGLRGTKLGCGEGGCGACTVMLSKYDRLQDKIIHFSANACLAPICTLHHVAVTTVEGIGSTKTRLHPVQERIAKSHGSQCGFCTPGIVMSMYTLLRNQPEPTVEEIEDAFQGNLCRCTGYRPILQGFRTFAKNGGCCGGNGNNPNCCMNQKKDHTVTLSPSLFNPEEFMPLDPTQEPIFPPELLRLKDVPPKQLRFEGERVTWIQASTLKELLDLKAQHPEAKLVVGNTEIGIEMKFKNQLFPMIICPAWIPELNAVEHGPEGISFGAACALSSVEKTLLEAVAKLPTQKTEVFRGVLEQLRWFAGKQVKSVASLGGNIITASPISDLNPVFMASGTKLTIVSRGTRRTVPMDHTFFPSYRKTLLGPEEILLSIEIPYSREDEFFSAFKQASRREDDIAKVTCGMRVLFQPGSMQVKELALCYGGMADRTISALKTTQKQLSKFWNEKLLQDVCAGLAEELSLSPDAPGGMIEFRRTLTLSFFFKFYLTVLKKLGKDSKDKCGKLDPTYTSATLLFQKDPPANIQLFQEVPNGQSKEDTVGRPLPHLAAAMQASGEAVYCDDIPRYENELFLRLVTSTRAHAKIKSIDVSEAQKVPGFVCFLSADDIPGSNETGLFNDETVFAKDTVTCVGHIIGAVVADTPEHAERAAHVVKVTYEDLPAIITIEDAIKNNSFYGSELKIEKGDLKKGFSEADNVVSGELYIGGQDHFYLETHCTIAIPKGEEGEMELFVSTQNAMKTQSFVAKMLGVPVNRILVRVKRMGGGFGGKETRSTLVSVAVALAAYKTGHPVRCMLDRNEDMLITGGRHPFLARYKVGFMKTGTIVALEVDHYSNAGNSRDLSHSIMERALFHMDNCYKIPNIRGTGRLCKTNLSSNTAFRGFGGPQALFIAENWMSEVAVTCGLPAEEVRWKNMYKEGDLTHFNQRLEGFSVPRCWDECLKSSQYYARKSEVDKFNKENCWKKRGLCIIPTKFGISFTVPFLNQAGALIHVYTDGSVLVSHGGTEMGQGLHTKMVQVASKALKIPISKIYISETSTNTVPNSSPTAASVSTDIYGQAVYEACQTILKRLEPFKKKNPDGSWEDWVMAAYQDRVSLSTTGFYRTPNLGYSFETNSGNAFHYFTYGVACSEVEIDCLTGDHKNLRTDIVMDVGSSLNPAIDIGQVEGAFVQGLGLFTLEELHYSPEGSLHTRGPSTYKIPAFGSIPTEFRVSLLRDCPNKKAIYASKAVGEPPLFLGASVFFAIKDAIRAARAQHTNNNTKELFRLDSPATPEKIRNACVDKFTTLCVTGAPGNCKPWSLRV

SMILES | IC50 [1] [nM] | IC50 (100 μM xanthine final) [nM]
N#Cc1cn(-c2ccc(C(=O)O)cc2)cc1-c1ccccc1-c1ccccc1 [Example 161] | 31.9 | 
Cc1ccsc1-c1cn(-c2ccc(C(=O)O)c(O)c2)cc1C#N [Example 311] |  | 6.9
COc1ccccc1-c1cn(-c2ccc(C(=O)O)c(O)c2)cc1C#N [Example 309] |  | 6.5
COc1cn(-c2ccc(C(=O)O)cc2)cc1C#N [Example 220] | 11.1 | 
N#Cc1cn(-c2ccc(C(=O)O)c(O)c2)cc1-c1ccc(F)cc1 [Example 320] |  | 10.6
N#Cc1cn(-c2ccc(C(=O)O)cc2)cc1/C=C/c1ccccc1 [Example 206] | 7.1 | 
N#Cc1cn(-c2ccc(C(=O)O)cc2)cc1-c1csc2ccccc12 [Example 253] | 5.4 | 
CCOc1cn(-c2ccc(C(=O)O)cc2)cc1C#N [Example 257] | 4.1 | 
Cc1cccc(C)c1-c1cn(-c2ccc(C(=O)O)c(O)c2)cc1C#N [Example 272] | 10.1 | 
N#Cc1cn(-c2ccc(C(=O)O)c(O)c2)cc1-c1nccs1 [Example 348] |  | 5.2
CSc1ccccc1-c1cn(-c2ccc(C(=O)O)c(O)c2)cc1C#N [Example 349] |  | 6.4
CCCc1c(C#N)cn(-c2ccc(C(=O)O)cc2)c1C [Example 239] | 15 | 
N#Cc1cn(-c2ccc(C(=O)O)cc2)cc1-c1ccc(O)cc1 [Example 148] | 2.5 | 
N#Cc1cn(-c2ccc(C(=O)O)c(O)c2)cc1-c1ccc(Cl)cc1 [Example 315] |  | 14.6
COc1ccc(CCc2cn(-c3ccc(C(=O)O)c(O)c3)cc2C#N)cc1 [Example 296] |  | 5.6
N#Cc1cn(-c2ccc(C(=O)O)cc2)cc1-c1ccccc1OCc1ccc(F)cc1 [Example 172] | 49.1 | 
N#Cc1cccc(-c2cn(-c3ccc(C(=O)O)cc3)cc2C#N)c1 [Example 211] | 4.6 | 
N#Cc1cn(-c2ccc(C(=O)O)cc2)cc1-c1cccc(OCc2ccc(F)cc2)c1 [Example 191] | 90.3 | 
Cc1cn(-c2ccc(C(=O)O)cc2)cc1C#N [Example 236] | 81.2 | 
COCOc1cccc(-c2cn(-c3ccc(C(=O)O)cc3)cc2C#N)c1 [Example 144] | 5.8 | 
COc1ccc2ccccc2c1-c1cn(-c2ccc(C(=O)O)c(O)c2)cc1C#N [Example 286] |  | 27.5
N#Cc1cccc(-c2cn(-c3ccc(C(=O)O)c(O)c3)cc2C#N)c1 [Example 330] |  | 19.9
CC(C)COc1cn(-c2ccc(C(=O)O)cc2)cc1C#N [Example 233] | 2.3 | 

SMILES | IC50 [1] [nM] | IC50 (100 μM xanthine final) [nM]
N#Cc1cn(-c2ccc(C(=O)O)cc2)cc1-c1ccccc1OCc1ccsc1 [Example 176] | 13.7 | 
N#Cc1cn(-c2ccc(C(=O)O)cc2)cc1-c1cccc(CO)c1 [Example 219] | 5 | 
N#Cc1cn(-c2ccc(C(=O)O)c(O)c2)cc1-c1ccc(COc2ccccc2)cc1 [Example 334] |  | 59.5
CCCc1cn(-c2ccc(C(=O)O)cc2)cc1C#N [Example 238] | 3.6 | 
N#Cc1cn(-c2ccc(C(=O)O)c(O)c2)cc1Cc1ccccc1 [Example 357] |  | 5.9
N#Cc1cn(-c2ccc(C(=O)O)cc2)cc1Cc1ccccc1 [Example 235] | 8.6 | 
COCCOc1ccccc1-c1cn(-c2ccc(C(=O)O)c(O)c2)cc1C#N [Example 15, 4-{3-Cyano-4-[2-(2-methoxyethoxy)phenyl]pyrrole-1-yl}-2-hydroxy benzoic acid] | 13.9 | 
N#Cc1cn(-c2ccc(C(=O)O)c(O)c2)cc1-c1ccccc1-c1ccccc1 [Example 328] |  | 9.3
N#Cc1cn(-c2ccc(C(=O)O)cc2)cc1-c1ccccc1OCc1ccccc1F [Example 170] | 37.5 | 
COc1ccc(F)c(-c2cn(-c3ccc(C(=O)O)c(O)c3)cc2C#N)c1 [Example 284] |  | 9.3
N#Cc1cn(-c2ccc(C(=O)O)cc2)cc1C(=O)N1CCOCC1 [Example 232] | 26.9 | 
N#Cc1cn(-c2ccc(C(=O)O)cc2)cc1-c1cccc(OCCO)c1 [Example 153] | 2.4 | 
N#Cc1cn(-c2ccc(C(=O)O)c(O)c2)cc1-c1ccccc1C(F)(F)F [Example 312] |  | 9.9
N#Cc1cn(-c2ccc(C(=O)O)cc2)cc1CCc1ccco1 [Example 258] | 3.9 | 
Cc1ccc(-c2cn(-c3cc(C(=O)O)ccn3)cc2C#N)cc1 [Example 363] |  | 21.3
N#Cc1cn(-c2ccc(C(=O)O)c(O)c2)cc1-c1ccccc1O [Example 12, 4-[3-Cyano-4-(2-hydroxyphenyl)pyrrole-1-yl]-2-hydroxy benzoic acid] | 5.5 | 
CC(C)Oc1ccc(-c2cn(-c3ccc(C(=O)O)c(O)c3)cc2C#N)cc1 [Example 346] |  | 16.8
COCCN(C)C(=O)c1cn(-c2ccc(C(=O)O)cc2)cc1C#N [Example 230] | 13 | 
N#Cc1cn(-c2ccc(C(=O)O)cc2)cc1-c1ccc(-c2ccccc2)cc1 [Example 163] | 41.7 | 
COc1ccc(-c2cn(-c3cc(C(=O)O)ccn3)cc2C#N)cc1 [Example 368] |  | 13.3
COc1ccc(-c2cn(-c3ccc(C(=O)O)c(O)c3)cc2C#N)c(OC)c1 [Example 266] | 10.4 | 
Cc1cccc(-c2cn(-c3ccc(C(=O)O)c(O)c3)cc2C#N)c1 [Example 280] |  | 15.6

The remaining lines, values ahead:

IC50 [1] [nM] | IC50 (100 μM xanthine final) [nM] | SMILES
56.8 |  | Cc1ccc(COc2ccccc2-c2cn(-c3ccc(C(=O)O)cc3)cc2C#N)cc1 [Example 169]
17.6 |  | N#Cc1cn(-c2ccc(C(=O)O)cc2)cc1-c1cccc(OCc2ccsc2)c1 [Example 174]
6.9 |  | N#Cc1cn(-c2ccc(C(=O)O)cc2)cc1-c1cccc2c1OC(F)(F)O2 [Example 254]
2.1 |  | N#Cc1cn(-c2ccc(C(=O)O)cc2)cc1-c1ccc(OCC(=O)O)cc1 [Example 160]
70.4 |  | N#Cc1cn(-c2ccc(C(=O)O)cc2)cc1-c1cccc(OCc2cccc(Cl)c2)c1 [Example 193]
10.1 |  | N#Cc1cn(-c2ccc(C(=O)O)cc2)cc1-c1cccn1-c1ccccc1 [Example 255]
 | 17.5 | Cc1ccc(-c2cn(-c3ccc(C(=O)O)c(O)c3)cc2C#N)s1 [Example 310]
 | 35.9 | CCCOc1ccc(-c2cn(-c3ccc(C(=O)O)c(O)c3)cc2C#N)cc1 [Example 342]
33.2 |  | CC(C)n1cc(-c2cn(-c3ccc(C(=O)O)cc3)cc2C#N)c2ccccc21 [Example 252]
 | 22.7 | N#Cc1cn(-c2cc(C(=O)O)ccn2)cc1-c1ccccc1Cl [Example 364]
4.6 |  | CN(Cc1ccccc1)C(=O)c1cn(-c2ccc(C(=O)O)cc2)cc1C#N [Example 228]
 | 88.5 | Cc1ccccc1-c1cn(-c2cc(C(=O)O)ccn2)cc1C#N [Example 361]
 | 7.1 | CCc1c(-c2ccccc2)c(C#N)cn1-c1ccc(C(=O)O)c(O)c1 [Example 327]
 | 3.2 | CC(C)(C)c1nn(-c2ccc(C(=O)O)c(O)c2)cc1C#N [Example 352]
255 |  | N#Cc1cn(-c2ccc(C(=O)O)cc2)cc1-c1ccccc1OCc1ccccc1C(F)(F)F [Example 180]
7.5 |  | N#Cc1cn(-c2ccc(C(=O)O)cc2)nc1-c1csc2ccccc12 [Example 8, 4-(3-Benzo[b]thiophene-3-yl-4-cyanopyrazole-1-yl)benzoic acid]
 | 6.5 | N#Cc1cn(-c2ccc(C(=O)O)c(O)c2)cc1-c1cccc2c1OCO2 [Example 322]
11.1 |  | COCCOc1ccccc1-c1cn(-c2ccc(C(=O)O)cc2)cc1C#N [Example 201]

IC50 [1] [nM] | IC50 (100 μM xanthine final) [nM] | SMILES
6.7 |  | CCOCCOc1cccc(-c2cn(-c3ccc(C(=O)O)cc3)cc2C#N)c1 [Example 215]
33.8 |  | N#Cc1cn(-c2ccc(C(=O)O)cc2)cc1-c1ccc(OCc2ccccc2)cc1 [Example 157]
 | 27.6 | N#Cc1cn(-c2ccc(C(=O)O)c(O)c2)cc1-c1cc2ccccc2o1 [Example 290]
 | 5.8 | CCOc1ccc(-c2cn(-c3ccc(C(=O)O)c(O)c3)cc2C#N)cc1 [Example 340]
52.2 |  | N#Cc1cn(-c2ccc(C(=O)O)cc2)cc1-c1ccc(Oc2ccccc2)cc1 [Example 166]
 | 36.4 | CCCOc1ccccc1-c1cn(-c2ccc(C(=O)O)c(O)c2)cc1C#N [Example 336]
23.4 |  | Cc1ccc(-c2cn(-c3ccc(C(=O)O)c(O)c3)cc2C#N)cc1F [Example 269]
5.4 |  | N#Cc1ccc(-c2cn(-c3ccc(C(=O)O)cc3)cc2C#N)cc1 [Example 212]
8.9 |  | CCCCCCCc1cn(-c2ccc(C(=O)O)cc2)cc1C#N [Example 247]
6 |  | COCCOc1cccc(-c2cn(-c3ccc(C(=O)O)cc3)cc2C#N)c1 [Example 202]
7.2 |  | CNC(=O)c1cn(-c2ccc(C(=O)O)cc2)cc1C#N [Example 225]
27.7 |  | N#Cc1cn(-c2ccc(C(=O)O)cc2)cc1-c1ccccc1OCc1cccs1 [Example 175]
7.2 |  | Cc1c(F)cccc1-c1cn(-c2ccc(C(=O)O)c(O)c2)cc1C#N [Example 275]
5 |  | N#Cc1cn(-c2ccc(C(=O)O)c(O)c2)cc1-c1c(F)cccc1F [Example 274]
 | 51.5 | N#Cc1cn(-c2ccc(C(=O)O)c(O)c2)cc1-c1ccccc1OCc1ccccc1 [Example 332]
5.8 |  | N#Cc1cn(-c2ccc(C(=O)O)cc2)nc1OCc1ccccc1 [Example 7, 4-(3-Benzyloxy-4-cyanopyrazole-1-yl)benzoic acid]
15.2 |  | N#Cc1cn(-c2ccc(C(=O)O)cc2)cc1-c1cccn1Cc1ccccc1 [Example 256]
5 |  | N#Cc1cn(-c2ccc(C(=O)O)cc2)cc1-c1cccc(C(=O)O)c1 [Example 217]
